{"source": "patent US20080039461A1", "about": "“Treatment of pain by inhibition of p38 map kinase” (priority 2002, published 2008)", "assay_type_in_all_cases": "in vivo, rat", "key": {"[1]": {"test_system": "thermal hyperalgesia induced by IT sP", "test": "thermal hyperalgesia evoked by intrathecal substance P", "details": "intrathecal pretreatment (-10 min); sP 30 nmol/10 μL", "protocol": "(The inhibitory activity of SD for p38 alpha and p38 beta was evaluated with an assay using recombinant (E. coli) human enzymes and myelin basic protein as a substrate by the methods of Clerk and Kumar respectively. See A. Clerk, P. […]. Sugden, FEBS Lett 426, 93-6. (1998) and S. Kumar, et al., Biochem Biophys Res Commun 235, 533-8. (1997).\n(§1) Male Sprague-Dawley rats (300-350 g) were implanted under isoflurane anesthesia with lumbar polyethylene (PE-10) catheters according to a modified method originally described in Physiol. Behav. 17, 1031 (1976). […] IT saline and 5% DMSO alone had no effect on behavior or protein expression/phosphorylation."}, "[2]": {"test_system": "carrageenan-induced thermal hyperalgesia", "test": "carrageenan-induced thermal hyperalgesia (Hargreaves-type device)", "protocol": "Hyperalgesia was induced in the rat's right hindpaw by intraplantar injection of carrageenan (2 mg in 0.1 ml of a […] solution (weight/volume) in physiological saline). To assess the thermally evoked paw withdrawal time, a device modeled after that described by Hargreaves (1988) was used. See Hargreaves K, Dubner R, Brown F, Flores C, Joris J. A new and sensitive method for measuring thermal nociception in cutaneous hyperalgesia, Pain, 32, 77-88 (1988). The device consisted of a glass surface on top of which the rats were placed. The glass surface was heated by a focused projection bulb below the glass surface. The first sign of discomfort is usually expressed as an attempt to sit up and lick the forepaws by the experimental animal. This response indicates a threshold of pain under the predetermined conditions. Dancing and jumping about by an undrugged animal is an indicator of unbearable pain; whereas drugged animals more commonly withdraw the hind paws and keep them close to their abdomen. A timer was actuated with the light source and latency defined as the time required for the paw to be withdrawn from the glass surface. See Dirig D M, Isakson P C, and Yaksh T L. J Pharmacol Exp Ther., 285, 1031-8 (1998)."}, "[3]": {"test_system": "formalin-induced flinching behavior", "test": "formalin-induced flinching (paw formalin model)", "details": "intrathecal pre-treatment (-10 min)", "protocol": "An evaluation was conducted to determine presence or lack thereof for an afferent-mediated induction of phosphorylated (activated) spinal p38 MAPK. A formalin mediated hyperalgesia model was utilized to conduct the evaluation. (In the formalin model, a standard dose of formalin is injected into the rat paw, and flexions of the paw are quantitated over the following 90 minute period. A biphasic response pattern is typically observed, with numerous responses observed during the period five minutes after injection (Phase 1) and a second phase (Phase 2), which occurs during the period about 10-60 minutes following injection. The mean number of flinches per minute is recorded as a function of time. Quantitation of responses during each phase can be accomplished by calculation of area under the curve of flinches/minute.) The formalin induction model reflects several levels of processing of nociceptive information in the spinal cord. See, e.g., U.S. Pat. No. 6,166,085. […] This second phase is thought to represent a state of facilitated processing evoked by the afferent input present during phase I and to involve release of at least two substances, glutamate and a tachykinin, based on pharmacological evidence. Injection of formalin into the paw evokes an initial burst of afferent input followed by a persistent low level discharge. […]"}, "[4]": {"test_system": "NMDA-induced hyperalgesia", "test": "hyperalgesia induced by intrathecal NMDA", "details": "IT NMDA 0.3 μg; MK801 10 μg, IT SD 3-60 μg, IT SB 1-30 μg, SA 10 μg", "source_text": "as §1"}}, "data": [{"compound": "C[S+]([O-])c1ccc(-c2nc(-c3ccncc3)c(-c3ccc(F)cc3)[nH]2)cc1", "note": "(centres unmarked) [SB, SB203580]", "values": [{"measurement": "thermal hyperalgesia induced by IT sP", "setting": "[1]", "value": "blocked the thermal hyperalgesia induced by IT sP in a dose dependent fashion"}, {"measurement": "carrageenan-induced thermal hyperalgesia", "setting": "[2]; intrathecal pre-treatment (-10 min)", "value": "potent dose-dependent suppression"}, {"measurement": "response latency of the uninduced paw", "setting": "[2]; intrathecal, even after the highest doses", "value": "no changes"}, {"measurement": "second phase of flinching behavior induced by formalin", "setting": "[3]", "value": "potent dose-dependent attenuation"}, {"measurement": "hyperalgesia induced by IT NMDA", "setting": "[4]", "value": "reversed in a dose dependent fashion"}]}]}
